Source: PubChem BioAssay (NCI)
Where “and” joins values, the source holds several entries; their conditions need not be identical. Equal values may be shown once.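 How tested: cells in 96-well plates exposed to compound for 48 hours at five concentrations. GI50: concentration for 50% inhibition of growth. TGI marks complete inhibition of growth.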

Key:
Assay in all cases: growth of human tumour cells (NCI), 48 h
SK-MEL-2 melanoma = test system: SK-MEL-2 melanoma
MCF7 breast = test system: MCF7 breast
T-47D breast = test system: T-47D breast
SK-OV-3 ovarian = test system: SK-OV-3 ovarian
NCI-H23 lung = test system: NCI-H23 lung
SW-620 colon = test system: SW-620 colon
HS 578T breast = test system: HS 578T breast
786-0 renal = test system: 786-0 renal
SF-268 CNS = test system: SF-268 CNS
HOP-92 NSCLC = test system: HOP-92 NSCLC

| Structure (SMILES) | TGI (SK-MEL-2 melanoma) | TGI (MCF7 breast) | TGI (T-47D breast) | TGI (SK-OV-3 ovarian) | TGI (NCI-H23 lung) | TGI (SW-620 colon) | TGI (HS 578T breast) | TGI (786-0 renal) | TGI (SF-268 CNS) | TGI (HOP-92 NSCLC) | GI50 (SK-MEL-2 melanoma) | GI50 (MCF7 breast) | GI50 (T-47D breast) | GI50 (SK-OV-3 ovarian) | GI50 (HOP-92 NSCLC) | GI50 (NCI-H23 lung) | GI50 (SW-620 colon) | GI50 (HS 578T breast) | GI50 (SF-268 CNS) |
| --- | --- | --- | --- | --- | --- | --- | --- | --- | --- | --- | --- | --- | --- | --- | --- | --- | --- | --- | --- |
| C=C(CO[Si](C)(C)C(C)(C)C)C(C)=O | 54.7 µM | 76.7 µM | 56.1 µM | > 100 µM | > 56.3 µM | 38.9 µM | > 84.4 µM | 34.3 µM | > 74.6 µM |  |  |  |  |  |  |  |  |  |  |
| COc1ccc(-c2cc(-c3ccc(Nc4ccnc5cc(Cl)ccc45)cc3)[nH]c(=O)c2C#N)c2ccccc12 | > 100 µM |  |  | 43.7 µM | > 91.6 µM | > 100 µM |  | 18.3 µM | > 96.6 µM | 30.8 µM |  |  |  |  |  |  |  |  |  |
| CC1(c2ccc[n+](Cc3ccccc3)c2)OCCO1 | > 100 µM |  |  | > 100 µM | > 100 µM | > 100 µM |  | > 100 µM |  |  |  |  |  |  |  |  |  |  |  |
| O=C1C(=O)c2ccccc2C(O)=C1CCCc1ccc(Oc2ccccc2)cc1 | 83.4 µM |  |  | > 100 µM | 19.1 µM | > 100 µM |  | 35.4 µM | > 100 µM | 49.5 µM |  |  |  |  |  |  |  |  |  |
| CCCC(=O)NC(Nc1ccc(S(=O)(=O)Nc2nc(C)cc(C)n2)cc1)(C(F)(F)F)C(F)(F)F | > 100 µM |  | > 100 µM | > 100 µM | > 100 µM | > 100 µM | > 100 µM | > 100 µM | > 100 µM | > 100 µM |  |  |  |  |  |  |  |  |  |
| N#CC(c1nc2ccccc2nc1Cl)S(=O)(=O)c1ccccc1 (stereo not drawn) | > 100 µM |  |  |  | > 100 µM | > 100 µM |  | > 100 µM | > 100 µM | 70.1 µM |  |  |  |  |  |  |  |  |  |
| COc1ccc2c(c1)c(CC(=O)O)c(C)n2C(=O)c1ccc(Cl)cc1 | > 100 µM | > 100 µM | > 100 µM |  | > 100 µM | > 100 µM | > 100 µM | > 100 µM | > 100 µM | > 100 µM |  |  |  |  |  |  |  |  |  |
| COc1ccccc1NC(=O)CC(=O)N1N=C(C)C(N=Nc2ccc(C(=O)O)cc2)C1=O (stereo not drawn) | > 100 µM | > 100 µM | > 100 µM |  | > 100 µM | > 100 µM | > 100 µM | > 100 µM | > 100 µM | > 100 µM |  |  |  |  |  |  |  |  |  |
| Cc1cc(N2CCCC2)nc(N(CCNc2ccnc3cc(Cl)ccc23)Cc2ccco2)n1 | > 100 µM | > 100 µM | 6.5 µM | 38.8 µM | > 100 µM | 81.8 µM | 69.3 µM |  | > 100 µM | 13.2 µM | 18 µM | 2.91 µM | 2.39 µM | 7.16 µM | 1.88 µM | 2.75 µM | 2.6 µM | 6.6 µM | 11.7 µM |
| CC1(C)C2C=CC1(C)C1(CC2)OCCO1 (stereo not drawn) | > 100 µM | > 100 µM | > 100 µM | > 100 µM | > 100 µM | > 100 µM | > 100 µM | > 100 µM | > 100 µM |  |  |  |  |  |  |  |  |  |  |
| COc1ccc(C2=NN(c3ccccc3)C[N+](c3ccc(OC)cc3)=N2)cc1 |  |  |  |  | 93.1 µM | 61 µM |  | > 100 µM | > 100 µM |  |  |  |  |  |  |  |  |  |  |
| CCOP(=O)(OCC)C1CC(n2cc(C)c(=O)[nH]c2=O)OC1CO (stereo not drawn) | > 100 µM | > 100 µM | > 100 µM |  | > 100 µM | > 100 µM | > 100 µM | > 100 µM | > 100 µM | > 100 µM |  |  |  |  |  |  |  |  |  |
| NNC(=O)Cn1c2ccc(Br)cc2c2nc3ccccc3nc21 | > 100 µM | > 100 µM | > 100 µM | > 100 µM | > 100 µM | > 100 µM |  | > 100 µM | > 100 µM |  |  |  |  |  |  |  |  |  |  |
| O=c1[nH]nc(-c2ccccc2)n1/N=C/c1cccnc1 |  | > 100 µM | > 100 µM |  | > 100 µM | > 100 µM | > 100 µM | > 100 µM | > 100 µM | > 100 µM |  |  |  |  |  |  |  |  |  |
| COC(=O)c1cc2ccc(OC(C)=O)c(OC(C)=O)c2cn1 | 36.7 µM | 6 µM and 35.5 µM |  | 52.4 µM | 36.8 µM | 31.9 µM |  | 33 µM | 53 µM | 32.4 µM |  | 16.7 µM |  |  |  |  | 13.4 µM |  |  |
| COc1ccc(/C=C2\S/C(=N/Nc3nc(-c4ccccc4)cs3)NC2=O)cc1OC | 47.5 µM | > 100 µM |  | 63.7 µM | 69.4 µM | > 100 µM | 83.3 µM | 93.4 µM | > 100 µM | 35.2 µM |  |  |  |  |  |  |  |  |  |
| CCN(CC)c1ccc2cc(C(=O)Nc3cccc4ccccc34)c(=N)oc2c1 | > 100 µM | > 100 µM | > 100 µM | > 100 µM |  | > 100 µM | > 100 µM | > 100 µM | > 100 µM | > 100 µM |  |  |  |  |  |  |  |  |  |
| CC1CC/C(=C\c2ccc(Cl)cc2)C2OC(N)=C(C#N)C(c3ccc(Cl)cc3)=C12 (stereo not drawn) | 27.2 µM | 29.8 µM | 17.8 µM | 40 µM | 29.4 µM | 89 µM | 49.1 µM | 26.5 µM | 31.2 µM |  |  |  |  |  |  |  |  |  |  |
| CCOC(=O)c1c(N2CCCC2)ncn(Cc2ccccc2)c1=S | > 100 µM |  | > 100 µM | > 100 µM | > 100 µM | > 100 µM | > 100 µM | > 100 µM | > 100 µM | > 100 µM |  |  |  |  |  |  |  |  |  |
| COc1ccc(NC(C)=O)cc1N1C(=O)/C(=C\c2cc(OC)c(OC)c(OC)c2)SC1c1ccccc1 (stereo not drawn) | > 100 µM | > 100 µM | > 100 µM | > 100 µM | > 100 µM | > 100 µM |  | > 100 µM |  | > 100 µM |  |  |  |  |  |  |  |  |  |
| COc1ccc(-c2c(C#N)c(S)n(NS(=O)(=O)c3ccc(C)cc3)c(=O)c2C#N)cc1 | 32.1 µM | > 100 µM |  | > 100 µM |  | 34.7 µM |  | 31.7 µM | 88 µM | > 100 µM |  |  |  |  |  |  |  |  |  |
| Nc1ccccc1CC(O)C(=O)O (stereo not drawn) |  | > 100 µM | > 100 µM | > 100 µM | > 100 µM | > 100 µM | > 100 µM | > 100 µM | > 100 µM | > 100 µM |  |  |  |  |  |  |  |  |  |
| C/C=C(/C)C(=O)O[C@H](C[C@@H](C)[C@H]1CC(c2ccoc2)OC1=O)[C@@]1(C)C(=O)CCC2O[C@]21C (stereo partly drawn) | > 100 µM | > 100 µM | > 100 µM | > 100 µM | > 100 µM | > 100 µM | > 100 µM | > 100 µM |  |  |  |  |  |  |  |  |  |  |  |
| OC(CCNCc1ccccc1)c1ccc2ccccc2c1 (stereo not drawn) | 38.9 µM | 54.3 µM | 49.9 µM |  | 62.1 µM | 43.1 µM | 47.7 µM | 35.9 µM | 48 µM |  |  |  |  |  |  |  |  |  |  |
